Measurements: patent US20100292231A1, “Indazole Compounds for Treating Inflammatory Disorders, Demyelinating Disorders and Cancers” (priority 2007, published 2010)
Read-outs that look alike come from different tables or passages of the source.

Assays:
Assay in all cases: SelectScreen kinase specificity survey
Assay type in all cases: biochemical
FRAP1 (mTOR) = molecular target: T1, FRAP1 (mTOR) (Homo sapiens, UniProt P42345); conditions: estimated, abridged dose response curve, read-out: Kinase inhibitory activity EC50
T1 construct: purchased Invitrogen, Inc. (SelectScreen platform)
Outline: (§1)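 Dose-response: 5 graded inhibitor additions per kinase, with ATP at 100 micromolar and detection by an optical reporter on a kinase-unique substrate. The sigmoid saturation fit has four parameters (Hill); EC50 is an estimate.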

JAK2 = molecular target: T2, JAK2 (Homo sapiens, UniProt O60674); conditions: estimated, abridged dose response curve, read-out: Kinase inhibitory activity EC50
T2 construct: purchased Invitrogen (SelectScreen platform)
Outline: as §1

RPS6KA3 (RSK2) = molecular target: T3, RPS6KA3 (RSK2) (Homo sapiens, UniProt P51812); conditions: estimated, abridged dose response curve, read-out: Kinase inhibitory activity EC50
T3 construct: purchased Invitrogen, Inc. (SelectScreen platform)
Outline: as §1

CSNK2A2 (CK2 alpha 2) = molecular target: T4, CSNK2A2 (CK2 alpha 2) (Homo sapiens, UniProt P19784); conditions: estimated, abridged dose response curve, read-out: Kinase inhibitory activity EC50
T4 construct: purchased Invitrogen, Inc. (SelectScreen service)
Outline: as §1

CDC42 BPA (MRCKA) = molecular target: T5, CDC42 BPA (MRCKA) (Homo sapiens, UniProt Q5VT25); conditions: estimated, abridged dose response curve, read-out: Kinase inhibitory activity EC50
T5 construct: purchased Invitrogen (SelectScreen platform)
Outline: as §1

EEF2K = molecular target: T6, EEF2K (Homo sapiens, UniProt O00418); conditions: estimated, abridged dose response curve, read-out: Kinase inhibitory activity EC50
T6 construct: purchased Invitrogen, Inc. (SelectScreen platform)
Outline: as §1

BRSK1 (SAD1) = molecular target: T7, BRSK1 (SAD1) (Homo sapiens, UniProt Q8TDC3)
T7 construct: purchased Invitrogen, Inc. (SelectScreen platform)
Outline: as §1

FLT1 (VEGFR1) = molecular target: T8, FLT1 (VEGFR1) (Homo sapiens, UniProt P17948); conditions: estimated, abridged dose response curve, read-out: Kinase inhibitory activity EC50
T8 construct: purchased Invitrogen, Inc. (SelectScreen platform)
Outline: as §1

DYRK1A = molecular target: T9, DYRK1A (Homo sapiens, UniProt Q13627); conditions: estimated, abridged dose response curve, read-out: Kinase inhibitory activity EC50
T9 construct: purchased Invitrogen (SelectScreen platform)
Outline: as §1

MAP4K4 (HGK, ZC1) = molecular target: T10, MAP4K4 (HGK, ZC1) (Homo sapiens, UniProt O95819); conditions: estimated, abridged dose response curve, read-out: Kinase inhibitory activity EC50
T10 construct: purchased Invitrogen (SelectScreen platform)
Outline: as §1

PRKCQ (PKC theta) = molecular target: T11, PRKCQ (PKC theta) (Homo sapiens, UniProt Q04759); conditions: estimated, abridged dose response curve, read-out: Kinase inhibitory activity EC50
T11 construct: purchased Invitrogen, Inc. (SelectScreen platform)
Outline: as §1

PHKG1 = molecular target: T12, PHKG1 (Homo sapiens, UniProt Q16816); conditions: estimated, abridged dose response curve, read-out: Kinase inhibitory activity EC50
T12 construct: purchased Invitrogen, Inc. (SelectScreen platform)
Outline: as §1

EPHA5 = molecular target: T13, EPHA5 (Homo sapiens, UniProt P54756); conditions: estimated, abridged dose response curve, read-out: Kinase inhibitory activity EC50
T13 construct: purchased Invitrogen (SelectScreen service)
Outline: as §1

EGFR (ErbB1) L858R = molecular target: T14, EGFR (ErbB1) L858R (Homo sapiens, UniProt P00533, L858R); conditions: estimated, abridged dose response curve, read-out: Kinase inhibitory activity EC50
T14 construct: purchased Invitrogen (SelectScreen service)
Outline: as §1

CDC42 BPB (MRCKB) = molecular target: T15, CDC42 BPB (MRCKB) (Homo sapiens, UniProt Q9Y5S2); conditions: estimated, abridged dose response curve, read-out: Kinase inhibitory activity EC50
T15 construct: purchased Invitrogen (SelectScreen platform)
Outline: as §1

ABL1 Y253F = molecular target: T16, ABL1 Y253F (Homo sapiens, UniProt P00519, Y253F); conditions: estimated, abridged dose response curve, read-out: Kinase inhibitory activity EC50
T16 construct: purchased Invitrogen (SelectScreen platform)
Outline: as §1

PDGFRA V561D = molecular target: T17, PDGFRA V561D (Homo sapiens, UniProt P16234, V561D); conditions: estimated, abridged dose response curve, read-out: Kinase inhibitory activity EC50
T17 construct: purchased Invitrogen (SelectScreen platform)
Outline: as §1

CDK2/cyclin A = molecular target: T18, CDK2/cyclin A (Homo sapiens, UniProt P24941); conditions: estimated, abridged dose response curve, read-out: Kinase inhibitory activity EC50
T18 construct: purchased Invitrogen (SelectScreen platform)
Outline: as §1

SGKL (SGK3) = molecular target: T19, SGKL (SGK3) (Homo sapiens, UniProt Q96BR1); conditions: estimated, abridged dose response curve, read-out: Kinase inhibitory activity EC50
T19 construct: purchased Invitrogen, Inc. (SelectScreen platform)
Outline: as §1

RPS6KA4 (MSK2) = molecular target: T20, RPS6KA4 (MSK2) (Homo sapiens, UniProt O75676); conditions: estimated, abridged dose response curve, read-out: Kinase inhibitory activity EC50
T20 construct: purchased Invitrogen, Inc. (SelectScreen platform)
Outline: as §1

EPHA2 = molecular target: T21, EPHA2 (Homo sapiens, UniProt P29317); conditions: estimated, abridged dose response curve, read-out: Kinase inhibitory activity EC50
T21 construct: purchased Invitrogen (SelectScreen service)
Outline: as §1

HIPK4 = molecular target: T22, HIPK4 (Homo sapiens, UniProt Q8NE63); conditions: estimated, abridged dose response curve, read-out: Kinase inhibitory activity EC50
T22 construct: purchased Invitrogen (SelectScreen platform)
Outline: as §1

PHKG2 = molecular target: T23, PHKG2 (Homo sapiens, UniProt P15735); conditions: estimated, abridged dose response curve, read-out: Kinase inhibitory activity EC50
T23 construct: purchased Invitrogen, Inc. (SelectScreen platform)
Outline: as §1

CSNK1G1 (CK1 gamma 1) = molecular target: T24, CSNK1G1 (CK1 gamma 1) (Homo sapiens, UniProt Q9HCP0); conditions: estimated, abridged dose response curve, read-out: Kinase inhibitory activity EC50
T24 construct: purchased Invitrogen (SelectScreen platform)
Outline: as §1

CHEK1 (CHK1) = molecular target: T25, CHEK1 (CHK1) (Homo sapiens, UniProt O14757); conditions: estimated, abridged dose response curve, read-out: Kinase inhibitory activity EC50
T25 construct: purchased Invitrogen, Inc. (SelectScreen platform)
Outline: as §1

DYRK3 = molecular target: T26, DYRK3 (Homo sapiens, UniProt O43781); conditions: estimated, abridged dose response curve, read-out: Kinase inhibitory activity EC50
T26 construct: purchased Invitrogen (SelectScreen platform)
Outline: as §1

CSK = molecular target: T27, CSK (Homo sapiens, UniProt P41240); conditions: estimated, abridged dose response curve, read-out: Kinase inhibitory activity EC50
T27 construct: purchased Invitrogen (SelectScreen service)
Outline: as §1

T2 sequence (O60674 whole entry): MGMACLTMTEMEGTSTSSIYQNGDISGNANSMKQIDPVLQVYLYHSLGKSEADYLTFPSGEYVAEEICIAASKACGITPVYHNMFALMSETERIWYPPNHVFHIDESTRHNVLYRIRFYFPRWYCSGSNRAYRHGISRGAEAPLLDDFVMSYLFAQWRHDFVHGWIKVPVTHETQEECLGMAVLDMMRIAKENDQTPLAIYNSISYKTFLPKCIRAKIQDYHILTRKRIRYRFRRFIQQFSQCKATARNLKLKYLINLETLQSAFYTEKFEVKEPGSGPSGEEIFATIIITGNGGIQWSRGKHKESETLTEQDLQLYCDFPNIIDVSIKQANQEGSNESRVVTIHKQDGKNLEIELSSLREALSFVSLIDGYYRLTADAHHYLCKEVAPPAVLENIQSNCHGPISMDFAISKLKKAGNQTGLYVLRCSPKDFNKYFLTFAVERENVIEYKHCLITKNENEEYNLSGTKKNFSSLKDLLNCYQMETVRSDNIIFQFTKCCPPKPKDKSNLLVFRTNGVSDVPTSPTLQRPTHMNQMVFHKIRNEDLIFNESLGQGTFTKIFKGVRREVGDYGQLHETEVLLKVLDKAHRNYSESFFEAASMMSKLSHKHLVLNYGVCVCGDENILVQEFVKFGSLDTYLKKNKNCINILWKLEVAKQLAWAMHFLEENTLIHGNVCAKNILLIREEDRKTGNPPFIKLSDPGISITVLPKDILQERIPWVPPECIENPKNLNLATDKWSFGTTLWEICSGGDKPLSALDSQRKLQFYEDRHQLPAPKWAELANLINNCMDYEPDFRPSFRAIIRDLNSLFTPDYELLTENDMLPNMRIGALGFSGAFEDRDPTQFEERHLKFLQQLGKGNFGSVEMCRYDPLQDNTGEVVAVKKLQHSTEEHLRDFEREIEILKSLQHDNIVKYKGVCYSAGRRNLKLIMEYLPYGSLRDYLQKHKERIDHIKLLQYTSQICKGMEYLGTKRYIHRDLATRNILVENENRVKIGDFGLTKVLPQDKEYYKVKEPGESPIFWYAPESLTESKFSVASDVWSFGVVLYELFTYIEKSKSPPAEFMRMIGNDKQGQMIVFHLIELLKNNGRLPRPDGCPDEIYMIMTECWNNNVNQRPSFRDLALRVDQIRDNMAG
T22 sequence (Q8NE63 whole entry): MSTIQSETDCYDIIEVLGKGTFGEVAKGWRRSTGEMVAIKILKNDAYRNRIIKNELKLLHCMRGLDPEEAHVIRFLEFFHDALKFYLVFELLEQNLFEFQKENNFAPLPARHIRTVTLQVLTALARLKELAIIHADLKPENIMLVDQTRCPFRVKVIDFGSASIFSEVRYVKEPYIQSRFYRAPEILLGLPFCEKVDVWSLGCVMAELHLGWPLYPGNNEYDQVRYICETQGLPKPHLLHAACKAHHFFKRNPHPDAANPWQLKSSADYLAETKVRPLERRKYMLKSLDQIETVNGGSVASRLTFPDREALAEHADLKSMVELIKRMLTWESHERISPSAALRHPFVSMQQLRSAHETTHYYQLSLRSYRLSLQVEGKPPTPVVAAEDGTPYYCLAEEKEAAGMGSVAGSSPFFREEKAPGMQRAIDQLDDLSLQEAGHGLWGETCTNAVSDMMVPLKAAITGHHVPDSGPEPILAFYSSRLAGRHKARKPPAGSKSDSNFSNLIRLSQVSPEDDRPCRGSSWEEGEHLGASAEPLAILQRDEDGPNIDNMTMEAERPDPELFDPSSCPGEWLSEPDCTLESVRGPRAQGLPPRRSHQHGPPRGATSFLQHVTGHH
T21 sequence (P29317 24-976): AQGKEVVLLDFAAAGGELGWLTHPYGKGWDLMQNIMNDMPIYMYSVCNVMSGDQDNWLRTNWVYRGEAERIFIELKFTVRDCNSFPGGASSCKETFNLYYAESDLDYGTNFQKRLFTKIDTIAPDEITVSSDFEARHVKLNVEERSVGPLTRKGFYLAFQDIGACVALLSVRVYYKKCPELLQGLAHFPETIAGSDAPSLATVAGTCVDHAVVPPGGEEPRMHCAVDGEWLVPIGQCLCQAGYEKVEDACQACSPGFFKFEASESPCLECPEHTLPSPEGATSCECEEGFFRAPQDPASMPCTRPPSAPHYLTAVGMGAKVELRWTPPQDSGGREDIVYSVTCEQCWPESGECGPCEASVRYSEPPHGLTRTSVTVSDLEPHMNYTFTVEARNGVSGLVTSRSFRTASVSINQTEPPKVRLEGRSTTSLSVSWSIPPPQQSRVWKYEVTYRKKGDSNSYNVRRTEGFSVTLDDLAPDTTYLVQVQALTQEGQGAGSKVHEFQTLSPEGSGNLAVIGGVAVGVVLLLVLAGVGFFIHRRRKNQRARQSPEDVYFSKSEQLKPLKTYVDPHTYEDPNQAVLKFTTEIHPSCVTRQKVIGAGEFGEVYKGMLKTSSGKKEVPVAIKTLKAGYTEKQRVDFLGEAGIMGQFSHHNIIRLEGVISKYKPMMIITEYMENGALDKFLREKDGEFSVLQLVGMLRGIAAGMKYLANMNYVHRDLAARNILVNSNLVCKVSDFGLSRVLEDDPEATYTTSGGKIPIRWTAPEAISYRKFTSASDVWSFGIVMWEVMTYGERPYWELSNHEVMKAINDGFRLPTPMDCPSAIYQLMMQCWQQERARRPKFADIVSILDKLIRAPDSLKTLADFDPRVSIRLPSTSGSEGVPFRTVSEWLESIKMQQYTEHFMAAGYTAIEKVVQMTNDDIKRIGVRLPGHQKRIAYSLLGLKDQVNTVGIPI
T17 sequence (P16234 24-1089 V561D): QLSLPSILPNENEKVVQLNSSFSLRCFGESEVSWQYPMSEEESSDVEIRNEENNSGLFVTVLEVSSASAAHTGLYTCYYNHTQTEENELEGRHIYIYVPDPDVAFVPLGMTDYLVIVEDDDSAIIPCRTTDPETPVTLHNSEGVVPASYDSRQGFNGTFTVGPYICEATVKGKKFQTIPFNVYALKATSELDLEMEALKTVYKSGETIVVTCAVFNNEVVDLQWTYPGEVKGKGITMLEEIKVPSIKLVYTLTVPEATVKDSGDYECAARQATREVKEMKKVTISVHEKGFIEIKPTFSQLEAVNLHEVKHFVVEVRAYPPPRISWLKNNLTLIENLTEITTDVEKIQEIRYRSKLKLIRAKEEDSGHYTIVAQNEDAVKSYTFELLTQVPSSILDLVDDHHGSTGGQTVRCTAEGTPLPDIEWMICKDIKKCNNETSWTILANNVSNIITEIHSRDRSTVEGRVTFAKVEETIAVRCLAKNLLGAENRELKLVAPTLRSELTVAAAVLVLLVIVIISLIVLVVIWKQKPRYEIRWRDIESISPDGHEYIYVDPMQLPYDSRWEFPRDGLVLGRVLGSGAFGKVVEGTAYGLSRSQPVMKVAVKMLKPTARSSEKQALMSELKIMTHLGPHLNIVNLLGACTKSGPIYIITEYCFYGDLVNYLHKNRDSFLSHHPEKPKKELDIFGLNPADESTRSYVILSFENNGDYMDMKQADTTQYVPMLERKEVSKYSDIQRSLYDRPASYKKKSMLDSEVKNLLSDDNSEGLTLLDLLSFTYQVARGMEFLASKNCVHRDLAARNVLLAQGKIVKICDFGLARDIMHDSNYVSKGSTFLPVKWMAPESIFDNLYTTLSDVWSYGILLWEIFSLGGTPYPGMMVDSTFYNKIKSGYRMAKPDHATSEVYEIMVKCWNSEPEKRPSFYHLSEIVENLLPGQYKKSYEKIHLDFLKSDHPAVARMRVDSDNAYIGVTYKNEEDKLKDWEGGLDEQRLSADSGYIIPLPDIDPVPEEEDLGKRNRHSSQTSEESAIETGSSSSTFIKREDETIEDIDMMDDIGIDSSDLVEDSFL
T26 sequence (O43781 whole entry): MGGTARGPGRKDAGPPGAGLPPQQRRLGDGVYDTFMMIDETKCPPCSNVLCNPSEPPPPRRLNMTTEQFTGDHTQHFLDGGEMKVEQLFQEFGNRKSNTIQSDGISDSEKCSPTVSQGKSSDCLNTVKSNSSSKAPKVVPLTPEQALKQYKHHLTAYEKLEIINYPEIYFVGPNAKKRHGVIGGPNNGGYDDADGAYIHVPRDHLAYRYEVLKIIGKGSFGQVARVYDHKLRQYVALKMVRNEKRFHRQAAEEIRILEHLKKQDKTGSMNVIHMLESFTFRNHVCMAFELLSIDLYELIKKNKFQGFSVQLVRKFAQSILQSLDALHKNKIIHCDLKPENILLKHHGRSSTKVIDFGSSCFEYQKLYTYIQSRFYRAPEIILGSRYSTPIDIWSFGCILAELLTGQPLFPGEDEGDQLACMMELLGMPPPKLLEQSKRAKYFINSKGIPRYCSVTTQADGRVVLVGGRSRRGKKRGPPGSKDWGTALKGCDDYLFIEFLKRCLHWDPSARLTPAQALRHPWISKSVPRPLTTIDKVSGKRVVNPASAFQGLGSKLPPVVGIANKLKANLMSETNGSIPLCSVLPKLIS
T25 sequence (O14757 whole entry): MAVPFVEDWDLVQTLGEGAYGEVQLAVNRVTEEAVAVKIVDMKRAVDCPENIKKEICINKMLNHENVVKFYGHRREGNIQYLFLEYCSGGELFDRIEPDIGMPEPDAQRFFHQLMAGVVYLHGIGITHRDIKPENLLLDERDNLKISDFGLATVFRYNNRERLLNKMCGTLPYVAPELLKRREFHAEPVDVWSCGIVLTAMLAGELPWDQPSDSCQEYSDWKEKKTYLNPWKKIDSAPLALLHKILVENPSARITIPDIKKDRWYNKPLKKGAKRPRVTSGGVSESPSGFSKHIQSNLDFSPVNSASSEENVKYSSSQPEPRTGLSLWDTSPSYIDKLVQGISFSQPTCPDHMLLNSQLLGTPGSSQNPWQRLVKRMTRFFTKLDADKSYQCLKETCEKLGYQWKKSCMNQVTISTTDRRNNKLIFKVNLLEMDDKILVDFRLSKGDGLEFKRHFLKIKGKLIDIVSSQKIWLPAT

Compound	EC50 (FRAP1 (mTOR)) [µM]	EC50 (JAK2) [µM]	EC50 (RPS6KA3 (RSK2)) [nM]	EC50 (CSNK2A2 (CK2 alpha 2)) [µM]	EC50 (CDC42 BPA (MRCKA)) [µM]	EC50 (EEF2K) [µM]	EC50 (FLT1 (VEGFR1)) [µM]	EC50 (DYRK1A) [nM]	EC50 (MAP4K4 (HGK, ZC1)) [µM]	EC50 (PRKCQ (PKC theta)) [µM]	EC50 (PHKG1) [nM]	EC50 (EPHA5) [µM]	EC50 (EGFR (ErbB1) L858R) [µM]	EC50 (CDC42 BPB (MRCKB)) [µM]	EC50 (ABL1 Y253F) [µM]	EC50 (PDGFRA V561D) [nM]	EC50 (CDK2/cyclin A) [nM]	EC50 (SGKL (SGK3)) [µM]	EC50 (RPS6KA4 (MSK2)) [µM]	EC50 (EPHA2) [µM]	also measured
CN(C)CCCNc1ccc2ncn3c4ccc5[nH]ncc5c4c(=O)c1c23 [Compound (IV)]	> 5	> 5	1490	> 5	> 5	> 5	> 5	468	> 5	> 5	1010	> 5	> 5	3.63	2.52	60	822	> 5	> 5	> 5	EC50 (BRSK1 (SAD1); BRSK1 (SAD1), estimated, abridged dose response curve, read-out: Kinase inhibitory activity EC50): 1390 nM; EC50 (HIPK4): 1310 nM; EC50 (PHKG2): 3.72 µM; EC50 (CSNK1G1 (CK1 gamma 1)): > 5 µM; EC50 (CHEK1 (CHK1)): > 5 µM; EC50 (DYRK3): 380 nM; EC50 (CSK): > 5 µM
CCN(CC)CCNc1ccc2ncn3c4ccc(O)cc4c(=O)c1c23 [Symadex, 5-(2-(diethylamino)ethylamino)-8-hydroxy-6H-imidazo[4,5,1-de]acridin-6-one, reference compound]	> 5	> 5	692	4.8	> 5	> 5	> 5	708	3.13	> 5	2200	> 5	> 5	> 5	4.49	83	> 5000	> 5	> 5	> 5	EC50 (BRSK1 (SAD1)): 1930 nM; EC50 (HIPK4): 1820 nM; EC50 (PHKG2): > 5 µM; EC50 (CSNK1G1 (CK1 gamma 1)): > 5 µM; EC50 (CHEK1 (CHK1)): > 5 µM; EC50 (DYRK3): 611 nM; EC50 (CSK): > 5 µM
